Measured values published in PMC9081329, “Pharmacokinetics, Mass Balance, Excretion, and Tissue Distribution of Plasmalogen Precursor PPI-1011” (Frontiers in Cell and Developmental Biology, 2022).
Where “and” joins values, the source holds several entries; their conditions need not be identical. Identical values can stand only once.

Assay: Mass balance and excretion study, single oral dose 100 mg/kg
Format: in vivo, Sprague-Dawley rats
Description: Four male rats were administered a single oral dose of [^14C]PPI-1011 at 100 mg/kg (200 μCi/kg). Feces, urine, and the cage rinse samples were collected at pre-determined times up to 168 h post-dose (HPD). The expired air was collected using a carbon dioxide trapping apparatus equipped with airflow apparatus. Expired [^14C]CO2 was collected for two of the four dosed animals for 24 h after the dose in a solution of ethanolamine:2-methoxyethanol (1:3, v/v) in two traps. Rats were sacrificed by overdose of CO2 and each cage was rinsed with 25% ethanol in water (>50 ml) at the end of the study. The cage rinse sample and the expired [^14C]CO2 was stored at 4°C.
Diluted dose solutions, plasma, urine, and cage rinse were analyzed in duplicate by LSC, as described above. The expired CO2 was analyzed the same day it was collected by mixing a 1 ml aliquot of the carbon dioxide absorbents with 5 ml of Hionic-Fluor for radioactivity concentrations with LSC. Feces samples were homogenized in 5-fold volume of purified water then duplicate fecal homogenate aliquots were transferred to Combusto Cones and combusted with a Sample Oxidizer (Model A307, Perkin Elmer) equipped with an Oximate 80 Robotic Automatic Samples. The [^14C]CO2 generated by the combustion was also collected in Carbo Sorb E and radioactivity was determined with PermaFluor as the scintillant using a Tri-Carb LSC.

**Q.** With `CC/C=C\C/C=C\C/C=C\C/C=C\C/C=C\C/C=C\CCC(=O)O[C@H](CO[14CH2]CCCCCCCCCCCCCCC)COC(=O)CCCCC1CCSS1` (some centres unmarked) [[^14C]PPI-1011] as the compound, how does the “Dose recovered in feces” value (168 h collection period, single oral 100 mg/kg) read?
**A.** 42.51 ± 7.16%

**Q.** And the “Total dose excreted in urine and feces” value (between 24 and 48 h)?
**A.** approximately 6%

**Q.** What about the “Additional excretion in urine and feces” value (between 48 and 168 h) of the same compound?
**A.** < 3%

**Q.** And the “Compound-associated radioactivity absorbed by the body” value (single oral 100 mg/kg)?
**A.** over 50%

**Q.** And the “Dose found in urine” value (up to day seven, single oral 100 mg/kg, 100 mg/kg)?
**A.** 2.40 ± 0.59% and < 2.5%

**Q.** What about the “Dosed radioactivity recovered in urine and feces including cage rinses” value (within 168 h collection period, single oral 100 mg/kg) of the same compound?
**A.** 45.10 ± 7.34%

**Q.** And the “Compound-associated radioactivity excreted in the feces” value (within the first 24 h)?
**A.** approximately 40%

**Q.** What about the “Compound-associated radioactivity excreted in the urine” value (within the first 24 h) of the same compound?
**A.** ~2.5%
